Source: patent US20250339569A1, “CARBONIC ANHYDRASE IX LIGANDS” (priority 2021, published 2025)
Starred links: 1 amine or outer side, 2 acyl side, 3 side chain; linkers in the order of their positions; H or OH if unused. Positions of bridges follow the written chain, without caps; N, C: chain ends. Non-standard residues stand in square brackets, D forms with d. Residues, ends and D or L forms follow the SMILES beside them. *: point of attachment. NH(CH2)3NH(O2Oc(DOTA)) = O=C(O)CN1CCN(CC(=O)O)CCN(CC(=O)NCCOCCOCC(=O)NCCCN*)CCN(CC(=O)O)CC1; DOTA = O=C(O)CN1CCN(CC(=O)O)CCN(CC(=O)*)CCN(CC(=O)O)CC1; mXylylene = c1cc(C[*:1])cc(C[*:2])c1; X2 = O=C(CN1CCC(N[*:1])CC1)[*:2]; Isovaleryl = CC(C)CC(=O)*; Ac6c = NC1(C(=O)O)CCCCC1

Experiments:
[1] = Plasma stability assay, mouse plasma; settings: mouse plasma, 37°C
[2] = target: T1, CAIX-expressing human HT-29 colorectal cancer cells (Homo sapiens, UniProt Q16790); experiment: FACS binding assay (IC50 determination, competition with tracer 3BP-2776 or 3BP-4149); settings: FACS competition on HT-29 cells, Tracer ID 3BP-2776 (10 nM, biotin-labeled), 4° C., 1 hour; read-out: pIC50 category (activity) (converted)
T1 construct: CAIX-expressing human HT-29 colorectal cancer cells; host or cells: HT-29 human colorectal cancer cells
Method in brief: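 HT-29 cells in FACS buffer (PBS, 1% FCS) at 500.000 cells/ml were exposed to compounds competing with a labelled tracer, with biotinylated compounds detected by 1 μg/mL APC-streptavidin for 30 min on ice. APC/Cy5 median fluorescence was read by flow cytometry and IC50 derived by 4PL fit.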

[3] = target: T2, human carbonic anhydrase IX (hCAIX-Fc) (Homo sapiens, UniProt Q16790); experiment: Surface plasmon resonance assay with hCAIX-Fc; type: binding; settings: 25° C.; for t1/2 category (activity): SPR dissociation half-life, hCAIX-Fc; for Kd: SPR, hCAIX-Fc captured, read-out: pKD category (activity) (converted)
T2 construct: purchased SinoBliological (Sino Biological) 10107-H02H

Compound	% intact compound remaining (incubation time) ([1]; 24 h) [%]	IC50 [2] [nM]	t1/2 category (activity) [3]	Kd [3] [nM]	% intact compound remaining (incubation time) ([1]; 6 h) [%]
CC(C)[C@H](NC(=O)CN1CCC(NC(=O)CN2CCN(CC(=O)O)CCN(CC(=O)O)CCN(CC(=O)O)CC2)CC1)C(=O)N[C@@H](Cc1ccc(O)cc1)C(=O)N[C@H]1CSCc2cccc(c2)CSC[C@@H](C(N)=O)NC(=O)[C@H](CO)NC(=O)[C@H](Cc2c[nH]c3ccccc23)NC(=O)[C@H]([C@@H](C)O)NC(=O)C2(CCCCC2)NC(=O)[C@H](Cc2c[nH]c3ccccc23)NC(=O)[C@H](CC(=O)O)NC(=O)[C@H]2CCCN2C(=O)[C@H](CCC(=O)O)NC1=O [3BP-3584] ({DOTA}-[X2]VYCE[dP]DW[Ac6c]TWSC-NH2; linker 4-13 via mXylylene)	>95	< 10	B (t1/2 between 5.1 and 15.0 minutes)	< 10	
CC(C)C[C@@H]1NC(=O)[C@H](Cc2c[nH]c3ccccc23)NC(=O)[C@H](CC(=O)O)NC(=O)[C@H]2CCCN2C(=O)[C@H](CCC(=O)O)NC(=O)[C@@H](NC(=O)[C@H](Cc2ccc(O)cc2)NC(=O)[C@@H](NC(=O)CN2CCC(NC(=O)CN3CCN(CC(=O)O)CCN(CC(=O)O)CCN(CC(=O)O)CC3)CC2)C(C)C)CSCc2cccc(c2)CSC[C@@H](C(N)=O)NC(=O)[C@H](CCCNC(=N)N)NC(=O)[C@H](Cc2c[nH]c3ccccc23)NC(=O)[C@H]([C@@H](C)O)NC1=O [3BP-3599] ({DOTA}-[X2]VYCE[dP]DWLTWRC-NH2; linker 4-13 via mXylylene)		< 10	B (t1/2 between 5.1 and 15.0 minutes)	< 10	52
CC(=O)N[C@@H](CO)C(=O)N[C@@H](Cc1ccc(O)cc1)C(=O)N[C@H]1CSCc2cccc(c2)CSC[C@@H](C(N)=O)NC(=O)[C@H](CCC(=O)NCCCNC(=O)COCCOCCNC(=O)CN2CCN(CC(=O)O)CCN(CC(=O)O)CCN(CC(=O)O)CC2)NC(=O)[C@H](Cc2c[nH]c3ccccc23)NC(=O)[C@H]([C@@H](C)O)NC(=O)[C@H](CC(C)C)NC(=O)[C@H](Cc2c[nH]c3ccccc23)NC(=O)[C@H](CC(=O)O)NC(=O)[C@H]2CCCN2C(=O)[C@H](CCC(=O)O)NC1=O [3BP-3732] (Ac-SYCE[dP]DWLTWE(NH(CH2)3NH(O2Oc(DOTA)))C-NH2; linker 3-12 via mXylylene)	>95	< 10	B (t1/2 between 5.1 and 15.0 minutes)	< 10	
CC(=O)N[C@H](C(=O)N[C@@H](CCCNC(=N)N)C(=O)N[C@H]1CSCc2cccc(c2)CSC[C@@H](C(N)=O)NC(=O)[C@H](CCC(=O)NCCCNC(=O)COCCOCCNC(=O)CN2CCN(CC(=O)O)CCN(CC(=O)O)CCN(CC(=O)O)CC2)NC(=O)[C@H](Cc2c[nH]c3ccccc23)NC(=O)[C@H]([C@@H](C)O)NC(=O)[C@H](CC(C)C)NC(=O)[C@H](Cc2c[nH]c3ccccc23)NC(=O)[C@H](CC(=O)O)NC(=O)[C@H]2CCCN2C(=O)[C@H](CCC(=O)O)NC1=O)C(C)C [3BP-3734] (Ac-VRCE[dP]DWLTWE(NH(CH2)3NH(O2Oc(DOTA)))C-NH2; linker 3-12 via mXylylene)	79	< 10	B (t1/2 between 5.1 and 15.0 minutes)	< 10	
CC(C)CC(=O)N[C@@H](Cc1ccc(O)cc1)C(=O)N[C@H]1CSCc2cccc(c2)CSC[C@@H](C(N)=O)NC(=O)[C@H](CCC(=O)NCCCNC(=O)COCCOCCNC(=O)CN2CCN(CC(=O)O)CCN(CC(=O)O)CCN(CC(=O)O)CC2)NC(=O)[C@H](Cc2c[nH]c3ccccc23)NC(=O)[C@H]([C@@H](C)O)NC(=O)[C@H](CC(C)C)NC(=O)[C@H](Cc2c[nH]c3ccccc23)NC(=O)[C@H](CC(=O)O)NC(=O)[C@H]2CCCN2C(=O)[C@H](CCC(=O)O)NC1=O [3BP-3740] (Isovaleryl-YCE[dP]DWLTWE(NH(CH2)3NH(O2Oc(DOTA)))C-NH2; linker 2-11 via mXylylene)	>95	< 10	B (t1/2 between 5.1 and 15.0 minutes)	< 10	
CC(=O)N[C@@H](CCCCNC(=O)CN1CCN(CC(=O)O)CCN(CC(=O)O)CCN(CC(=O)O)CC1)C(=O)N[C@H](C(=O)N[C@@H](Cc1ccc(O)cc1)C(=O)N[C@H]1CSCc2cccc(c2)CSC[C@@H](C(N)=O)NC(=O)[C@H](CO)NC(=O)[C@H](Cc2c[nH]c3ccccc23)NC(=O)[C@H]([C@@H](C)O)NC(=O)[C@H](CC(C)C)NC(=O)[C@H](Cc2c[nH]c3ccccc23)NC(=O)[C@H](CC(=O)O)NC(=O)[C@H]2CCCN2C(=O)[C@H](CCC(=O)O)NC1=O)C(C)C [3BP-3840] (Ac-K(DOTA)VYCE[dP]DWLTWSC-NH2; linker 4-13 via mXylylene)	>95	< 10	B (t1/2 between 5.1 and 15.0 minutes)	< 10	
CC(=O)N[C@H](C(=O)N[C@@H](CCCNC(=N)N)C(=O)N[C@H]1CSCc2cccc(c2)CSC[C@@H](C(N)=O)NC(=O)[C@H](CCC(=O)NCCCNC(=O)COCCOCCNC(=O)CN2CCN(CC(=O)O)CCN(CC(=O)O)CCN(CC(=O)O)CC2)NC(=O)[C@H](Cc2c[nH]c3ccccc23)NC(=O)[C@H]([C@@H](C)O)NC(=O)[C@H](CC(C)C)NC(=O)[C@H](Cc2c[nH]c3ccccc23)NC(=O)[C@H](CC(=O)O)NC(=O)[C@H]2CCCN2C(=O)[C@H](CCC(=O)O)NC1=O)C(C)C [3BP-3845] (Ac-VRCE[dP]DWLTWE(NH(CH2)3NH(O2Oc(DOTA)))C-NH2; linker 3-12 via mXylylene)	76				
CC(C)C[C@@H]1NC(=O)[C@H](Cc2c[nH]c3ccccc23)NC(=O)[C@H](CC(=O)O)NC(=O)[C@H]2CCCN2C(=O)[C@H](CCC(=O)O)NC(=O)[C@@H](NC(=O)[C@H](Cc2ccc(O)cc2)NC(=O)[C@@H](NC(=O)CN2CCC(NC(=O)CN3CCN(CC(=O)O)CCN(CC(=O)O)CCN(CC(=O)O)CC3)CC2)C(C)C)CSCc2cccc(c2)CSC[C@@H](C(N)=O)NC(=O)[C@H](CO)NC(=O)[C@H](Cc2c[nH]c3ccccc23)NC(=O)[C@H]([C@@H](C)O)NC1=O [3BP-3905] ({DOTA}-[X2]VYCE[dP]DWLTWSC-NH2; linker 4-13 via mXylylene)	83			< 10	
CC(C)C[C@@H]1NC(=O)[C@H](Cc2c[nH]c3ccccc23)NC(=O)[C@H](CC(=O)O)NC(=O)[C@H]2CCCN2C(=O)[C@H](CCC(=O)O)NC(=O)[C@@H](NC(=O)[C@H](Cc2ccc(O)cc2)NC(=O)CN2CCN(CC(=O)O)CCN(CC(=O)O)CCN(CC(=O)O)CC2)CSCc2cccc(c2)CSC[C@@H](C(N)=O)NC(=O)[C@H](CO)NC(=O)[C@H](Cc2c[nH]c3ccccc23)NC(=O)[C@H]([C@@H](C)O)NC1=O [3BP-3906] ({DOTA}-YCE[dP]DWLTWSC-NH2; linker 2-11 via mXylylene)	>95			< 10	
CC(C)C[C@@H]1NC(=O)[C@H](Cc2c[nH]c3ccccc23)NC(=O)[C@@H]2CCCCNC(=O)CC[C@H](NC1=O)C(=O)N[C@@H](Cc1c[nH]c3ccccc13)C(=O)N[C@@H](CO)C(=O)N[C@H](C(N)=O)CSCc1cccc(c1)CSC[C@H](NC(=O)[C@H](Cc1ccc(O)cc1)NC(=O)CN1CCN(CC(=O)O)CCN(CC(=O)O)CCN(CC(=O)O)CC1)C(=O)N[C@@H](CCC(=O)O)C(=O)N1CCC[C@@H]1C(=O)N2 [3BP-4053] ({DOTA}-YCE[dP]KWLEWSC-NH2; linker 2-11 via mXylylene; lactam 5-8)	91				
